# From US20040023983A1, “Methods of use of fluoroquinolone compounds against pathogenic helicobacter bacteria” (priority 2003, published 2004)
# Assays:
# H. pylori ATCC 43504 = assay: NCCLS agar dilution MIC, control antibiotics against quality control strain; assay type: cell-based; conditions: Helicobacter pylori, ATCC43504, read at 72 hours
# Source text: (§1) The aim of the present invention is to evaluate the susceptibility of H. pylori to the new fluoroquinolone gemifloxacin (SB-265805). Twenty-one (21) H. pylori strains were obtained, including 16 clinical isolates CCUG 39297, CCUG 30988 (Lelwala-Guruge, J., Ljungh, A., & Wadstrom, T. 1992. APMIS 100, 908-13), CCUG 17875 (Lelwala-Guruge, J., Ljungh, A., & Wadstrom, T. 1992. APMIS 100, 908-13; Ilver, D., Arnqvist, A., Ogren, J., Frick, I. M., Kersulyte, D., Incecik, E. T. et al. 1998. Science 279, 373-7), CCUG 38771, CCUG 15818, CCUG 17874 (Lelwala-Guruge, J., Ljungh, A., & Wadstrom, T. 1992. APMIS 100, 908-13; O'Toole, P. W., Logan, S. M., Kostrzynska, M., Wadström, T., & Trust, T. J. 1991. Journal of Bacteriology 173, 505-513), CCUG 19087, CCUG 30987 (Lelwala-Guruge, J., Ljungh, A., & Wadstrom, T. 1992. APMIS 100, 908-13), CCUG 38772, CCUG 18943, CCUG 18295, CCUG 36718, CCUG 36719, CCUG 35899, CCUG 36720, CCUG 39924; and laboratory strains Not18, Not34, ATCC 43504, SS1, and ATCC 700392/26695. These strains include gastric biopsy isolates from the USA, Sweden, France, Belgium, UK, South Africa, and Australia Two of the clinical isolates are reported to have the cagA^+ genotype (strains CCUG 17874 and CCUG 17875) and three to be cagA^− (strains CCUG 36720, CCUG 36719, and CCUG 30988), but the cag genotype of the rest is unknown. […] The activities of amoxycillin, tetracycline and metronidazole against H. pylori ATCC 43504 were also tested as controls. The agar plates were inoculated using a Steers replicator and read at 72 hours.
# H. pylori = assay: NCCLS agar dilution MIC, 21 H. pylori strains; assay type: cell-based, Helicobacter pylori; conditions: 21 isolates of H. pylori, read at 72 hours; for MIC50 / MIC90: Helicobacter pylori
# Source text: as §1
Structure (SMILES),MIC (H. pylori ATCC 43504) [µg/mL],MIC Range (H. pylori) [mg/L],MIC50 (H. pylori) [µg/mL],MIC90 (H. pylori) [µg/mL]
CN(C)[C@@H]1C(O)=C(C(N)=O)C(=O)[C@@]2(O)C(O)=C3C(=O)c4c(O)cccc4[C@@](C)(O)[C@H]3C[C@@H]12 [tetracycline],1,,,
COc1c(N2C[C@@H]3CCCN[C@@H]3C2)c(F)cc2c(=O)c(C(=O)O)cn(C3CC3)c12 [Moxifloxacin],,0.13 to 2.0,0.25,0.5
CC1(C)S[C@@H]2[C@H](NC(=O)[C@H](N)c3ccc(O)cc3)C(=O)N2[C@H]1C(=O)O [amoxycillin],0.06,,,

# Results, then the molecule that gave them:
MIC (H. pylori ATCC 43504) [µg/mL],MIC Range (H. pylori) [mg/L],MIC50 (H. pylori) [µg/mL],MIC90 (H. pylori) [µg/mL],Structure (SMILES)
,0.03 to 1.0,0.06,0.13,"CO/N=C1\CN(c2nc3c(cc2F)c(=O)c(C(=O)O)cn3C2CC2)CC1CN (racemic) [Gemifloxacin, (R,S)-7-(3-aminomethyl-4-methoxyiminopyrrolidin-1-yl)-1-cyclopropyl-6-fluoro-4-oxo-1,4-dihydro-1,8-naphthyridine-3-carboxylic acid]"
,0.13 to 2.0,0.25,0.5,C[C@H]1COc2c(N3CCN(C)CC3)c(F)cc3c(=O)c(C(=O)O)cn1c23 [Levofloxacin]
,0.03 to 0.5,0.13,0.13,COc1c(N2CCNC(C)C2)c(F)cc2c(=O)c(C(=O)O)cn(C3CC3)c12 (stereo not drawn) [Gatifloxacin]
256,,,,Cc1ncc([N+](=O)[O-])n1CCO [metronidazole]
